Experimental data published in PMC8767972 (Slas Discovery, 2022).

What was measured:
HKU1 main protease = HKU1 main protease (Human coronavirus HKU1, UniProt P0C6X2); format: biochemical, HKU1 CoV; details: read-out: HKU1 IC50
NL63 main protease = NL63 main protease (Human coronavirus NL63, UniProt P0C6X5); format: biochemical, NL63 CoV; details: read-out: NL63 IC50
NL63 main protease, sequence (P0C6X5 2940-3242 limits assumed): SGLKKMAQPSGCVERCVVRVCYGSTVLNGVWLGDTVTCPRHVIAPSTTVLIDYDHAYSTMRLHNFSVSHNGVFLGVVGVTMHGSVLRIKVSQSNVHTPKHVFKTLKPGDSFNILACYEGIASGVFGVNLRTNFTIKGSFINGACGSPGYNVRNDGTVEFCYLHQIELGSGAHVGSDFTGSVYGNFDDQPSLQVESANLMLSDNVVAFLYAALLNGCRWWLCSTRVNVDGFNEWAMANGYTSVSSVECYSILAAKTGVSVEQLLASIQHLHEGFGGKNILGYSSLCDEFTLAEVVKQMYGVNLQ

HKU1 main protease, sequence (P0C6X2 3335-3637 limits assumed): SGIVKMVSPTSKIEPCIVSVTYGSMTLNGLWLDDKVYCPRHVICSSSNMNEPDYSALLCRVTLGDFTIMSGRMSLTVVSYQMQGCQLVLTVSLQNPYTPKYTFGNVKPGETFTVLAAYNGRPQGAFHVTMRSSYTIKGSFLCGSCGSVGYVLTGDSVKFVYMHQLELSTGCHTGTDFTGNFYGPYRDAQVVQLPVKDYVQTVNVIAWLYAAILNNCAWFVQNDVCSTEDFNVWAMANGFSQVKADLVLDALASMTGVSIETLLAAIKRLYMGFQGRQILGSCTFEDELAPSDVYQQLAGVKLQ

Q: Which results are given for CC(C)C[C@H](NC(=O)OCc1ccccc1)C(=O)N[C@@H](CC1CCNC1=O)C(O)S(=O)(=O)O (some centres unmarked) [GC376]?
A: IC50 (HKU1 main protease): 12 nM; IC50 (NL63 main protease): 52 nM
